Active and inactive are the calls of the source. No cut-off for these calls is given here.
Biological target: T1, Proteasome Macropain subunit MB1 (Homo sapiens) (UniProt P28074)
T1 sequence (whole entry): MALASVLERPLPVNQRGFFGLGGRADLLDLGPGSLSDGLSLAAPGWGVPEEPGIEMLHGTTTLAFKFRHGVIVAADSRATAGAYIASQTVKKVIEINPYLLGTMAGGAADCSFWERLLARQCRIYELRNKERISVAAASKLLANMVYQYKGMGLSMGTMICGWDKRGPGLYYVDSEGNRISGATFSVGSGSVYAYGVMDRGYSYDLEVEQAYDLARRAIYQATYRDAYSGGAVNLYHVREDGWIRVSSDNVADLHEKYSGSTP
Assay: Inhibition of human 20S proteasome chymotryptic-like activity using Suc-LLVY-AMC as substrate assessed as fluorescence quinching control by fluorescence assay

Cc1cc(C)c2cc(-c3ccccc3)c(-c3ccccc3)nc2c1
inhibition: inactive

Source: ChEMBL document CHEMBL3804753, “Substituted quinolines as noncovalent proteasome inhibitors” (Bioorg Med Chem, 2016)
